Source: PMC4580987, “Catalytic site inhibition of insulin-degrading enzyme by a small molecule induces glucose intolerance in mice” (Nature Communications, 2015)
pIC50: −log10 of the molar value. “Also recorded” adds a separate entry of the source.

Assays:
[1] = test system: C57BL/6J mice; test: Intraperitoneal glucose tolerance test (IPGTT); format: in vivo, mouse; settings: 50 mg kg^−1 ip, intraperitoneal glucose 1.5 g kg^−1
Protocol: OGTT and IPGTT were performed on 11 to 16 week-old male or female mice (n=4–7 per experimental group). C57BL/6J mice were purchased from Charles River Laboratories (France), Stock no. 000664. C57BL/6J Ide−/− mice were obtained from Guenette[20] and bred in the animal facility of INSERM U1151. WT C57BL/6J mice of the same genetic background were bred in the same animal facility in parallel. NOD Ide−/− mice were generated by backcrossing C57BL/6J Ide−/− mice with NOD wt mice bred in the animal facility of INSERM U1151 and maintained in this facility together with WT NOD mice. Normoglycemic WT and Ide−/− female NOD mice aged 14 weeks were used for OGTTs. Following a 6 h fasting period, a small tail cut was made, basal blood glucose was determined. […] Fifteen minutes later, blood glucose concentrations were measured before and after (up to 120 min, as shown) oral (2 g kg^−1 or 3 g kg^−1, as shown) or intraperitoneal (1.5 g kg^−1) glucose administration. […] Blood glucose levels were determined using an Accu-Check glucometer (Roche Diagnostics). Areas under the curves (AUC) for OGTT and IPGTT were calculated to evaluate glucose tolerance. Plasma insulin concentrations were measured by ELISA (cat. no. 10-1247-01,Mercodia) in blood samples collected 15 min before and 15 and 90 min relative to oral glucose injection. […]

[2] = molecular target: T1, recombinant human ECE-1 (Homo sapiens, UniProt P42892); test: Endothelin-converting enzyme inhibition (CEREP); format: biochemical; settings: means of two experiments minimum, s.d.±10%; read-out: Selectivity IC50 hECE
T1 construct: host or cells: NSO cells
T1 sequence (P42892 1-770): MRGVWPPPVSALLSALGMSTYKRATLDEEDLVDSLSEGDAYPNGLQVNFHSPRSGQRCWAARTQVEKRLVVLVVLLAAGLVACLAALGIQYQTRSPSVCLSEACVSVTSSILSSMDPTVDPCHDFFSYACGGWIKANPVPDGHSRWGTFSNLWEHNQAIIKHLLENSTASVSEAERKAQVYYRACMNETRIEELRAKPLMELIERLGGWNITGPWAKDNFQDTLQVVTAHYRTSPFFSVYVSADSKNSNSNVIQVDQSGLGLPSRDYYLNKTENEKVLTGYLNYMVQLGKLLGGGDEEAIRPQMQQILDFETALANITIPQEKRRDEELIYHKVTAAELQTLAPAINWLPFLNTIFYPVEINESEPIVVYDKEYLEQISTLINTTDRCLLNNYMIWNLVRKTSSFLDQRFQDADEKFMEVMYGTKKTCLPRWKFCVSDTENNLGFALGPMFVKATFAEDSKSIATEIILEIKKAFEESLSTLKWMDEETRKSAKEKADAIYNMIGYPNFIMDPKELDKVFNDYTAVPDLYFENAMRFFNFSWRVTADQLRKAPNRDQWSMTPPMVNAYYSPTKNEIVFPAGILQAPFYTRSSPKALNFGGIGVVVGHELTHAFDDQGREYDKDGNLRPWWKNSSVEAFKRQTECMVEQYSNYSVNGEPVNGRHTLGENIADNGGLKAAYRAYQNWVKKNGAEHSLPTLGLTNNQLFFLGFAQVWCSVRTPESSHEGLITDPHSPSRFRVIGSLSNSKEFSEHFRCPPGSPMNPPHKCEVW

[3] = Stability in mouse plasma; format: in vitro ADME; settings: 37 °C, read-out: Plasma stability m (t1/2)
Protocol: Incubations were performed in duplicate in Eppendorf tubes. The plasma (mouse plasma, rat plasma (mixed gender), human (mixed gender, all lithium heparine, from Sera Laboratories International) or cell culture medium (differenciation medium: DMEM (Life Technologies, Ref 41965), 0.4 % gentamicine, 10 % FCS (Lonza, Ref DE14-801F) or proliferation medium: DMEM (Life Technologies, Ref 41965), 0.4 % gentamicine, 2 % horse serum (Gbco, Ref16050) was pre-incubated 5 min at 37 °C before the addition of test compounds to a final concentration of 10 μM (1% DMSO maximum). At the defined time points, 50 μl from each tube were removed to another tube containing 450 μl of cold CH3CN+ internal standard (1 μM). After centrifugation (10 min at 10,000 r.p.m.), supernatants are analysed. The degradation half-life (t1/2) values were calculated as t1/2=0.693/k where k is the first-order degradation rate constant. The degradation rate constant (k) was estimated by one-phase exponential decay nonlinear regression analysis of the degradation time course data using Xlfit software (version 2.1.2 or higher) from IDBS.Ltd.

[4] = test system: C57BL/6J mice; test: Insulin tolerance test (ITT); format: in vivo, mouse; settings: 50 mg kg^−1 ip
Protocol: AUC for ITT were calculated to evaluate insulin sensitivity. Blood glucose levels were determined using an Accu-Check glucometer (Roche Diagnostics). […] The protocol was approved by the ethical comitee CEEA Nord Pas de Calais (CEEA75).

[5] = molecular target: T2, Recombinant human MMP-1 (Homo sapiens, UniProt P03956); test: Matrix metalloprotease 1 inhibition (CEREP); format: biochemical; settings: means of two experiments minimum, s.d.±10%; read-out: Selectivity IC50 hMMP-1
T2 construct: host or cells: E. coli
T2 sequence (P03956 100-469): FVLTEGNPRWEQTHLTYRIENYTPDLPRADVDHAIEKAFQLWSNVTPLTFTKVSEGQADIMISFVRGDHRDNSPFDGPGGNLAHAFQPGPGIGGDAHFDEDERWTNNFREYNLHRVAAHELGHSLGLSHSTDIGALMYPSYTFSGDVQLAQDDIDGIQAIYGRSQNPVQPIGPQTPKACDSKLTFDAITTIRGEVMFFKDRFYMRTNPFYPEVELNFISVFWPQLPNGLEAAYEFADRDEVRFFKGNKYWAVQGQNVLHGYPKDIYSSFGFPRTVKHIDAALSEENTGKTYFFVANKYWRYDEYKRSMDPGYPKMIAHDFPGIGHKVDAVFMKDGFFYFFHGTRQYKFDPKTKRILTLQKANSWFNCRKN
Protocol: Briefly, human NEP (R&D Systems; 200 ng ml^−1) was incubated 10 min at room temperature with compound in Hepes 50 mM, NaCl 100 mM, pH 7.4 and the enzymatic reaction started by adding the substrate (final concentration 200 μM). […] Briefly, human ACE (R&D Systems) was incubated 10 min at room temperature with compound in Tris 50 mM 1% NaCl pH 7.4 and the enzymatic reaction is started by adding the substrate (final concentration 300 μM). […] In vitro activity was assayed at CEREP.SA as follows.

O=C(C[C@@H](Cc1ccc2ccccc2c1)n1cc(CNC(=O)c2ccc(F)cc2)nn1)NO [Compound 1]
plasma glucose / glucose tolerance in IPGTT [1]: Impairs glucose tolerance in IPGTT | pIC50 [2]: 5.19 | half-life at 10 μM [3]: 24 h | serum insulin concentrations during ITT ([4]; 0.75 U kg^−1 insulin, significant at 30 min): slightly increased | glucose lowering effect of insulin during ITT ([4]; 30 and 60 min): Augments insulin action in vivo; also recorded: tended to enhance | pIC50 [5]: 5.00
